Positions of bridges follow the written chain, without caps; N, C: chain ends. Non-standard residues stand in square brackets, D forms with d. Residues, ends and D or L forms follow the SMILES beside them. Chains are numbered I, II in the order given. *: point of attachment. NOTA = O=C(O)CN1CCN(CC(=O)O)CCN(CC(=O)*)CC1
Tests used:
[1] = In vivo radiometabolite analysis in plasma and urine; parameters: species or system mouse; conditions: wild-type mice
Protocol: Plasma samples were obtained by decapitation 15 min p.i. (n = 2). Blood was collected in EDTA tubes and centrifuged for 5 min at 3000× g. Subsequently, plasma was removed and diluted (1:2) with acetonitrile to precipitate all plasma proteins. After centrifugation (5 min at 3000× g), the supernatant was diluted (1:10) with water and filtered (0.22 µm) before injection on radioHPLC. Urine samples were collected 75 min p.i. (n = 3) by gently pressing on the bladder. The collected urine was filtered (0.22 µm) before injection on radioHPLC. Due to low radioactivity concentration in the plasma samples, 30 fractions of 30 s per plasma sample were collected. Radioactivity in the fractions was determined in an automated gamma counter.

[2] = Ex vivo biodistribution in wild-type mice; conditions: mouse, total radioactivity, 75 min p.i., ex vivo gamma counting, mean ± SD
Protocol: The in vivo pharmacokinetics of the selected radioligands were first evaluated in wild-type mice by performing a whole-body biodistribution study. […] Blood and major organs were collected in tared tubes and weighed. Quantification of radioactivity in blood, organs, and other body parts was performed using an automated gamma counter equipped with a 3-inch NaI(Tl) well crystal coupled to a multichannel analyzer, mounted in a sample changer (2480 Wizard^2, Perkin Elmer, Waltham, MA, USA). Counts were corrected for background radiation, physical decay and counter dead time. Results are presented as standardized uptake values (SUV; tissue activity concentration (MBq/g)/[injected dose (MBq)/body weight (g)]).

[3] = test system: U87.hCXCR4 tumor-bearing mice; experiment: Ex vivo biodistribution in U87.hCXCR4 tumor-bearing mice; parameters: species or system mouse; conditions: 75 min p.i., mean ± SD
[4] = as above; parameters: species or system mouse; conditions: female, SCID (CB17.Cg-Prkdc<scid>Lyst<bg-J>/Crl), mouse, iv, total radioactivity, 75 min p.i., mean ± SD
[5] = co-injected AMD3100 5 mg/kg (157 nmol), n = 4
[6] = co-injected DV1-k-(DV3) 7 nmol, n = 3
[7] = co-injected DV1-k-(DV3) 14 nmol, n = 4
[8] = co-injected DV1-k-(DV3) 24 nmol, n = 4
[9] = SUV ratio, co-injected AMD3100 5 mg/kg (157 nmol), n = 4
[10] = SUV ratio, co-injected DV1-k-(DV3) 7 nmol, n = 3
[11] = SUV ratio, co-injected DV1-k-(DV3) 24 nmol, n = 4

CC(C)C[C@@H](N)C(=O)NCC(=O)N[C@H](C)C(=O)N[C@H](CO)C(=O)N[C@H](Cc1c[nH]c2ccccc12)C(=O)N[C@H](Cc1c[nH]cn1)C(=O)N[C@H](CCCNC(=N)N)C(=O)N1CCC[C@@H]1C(=O)N[C@H](CC(=O)O)C(=O)N[C@H](CCCCNC(=O)CN1CCN(CC(=O)O)CCN(CC(=O)O)CC1)C(=O)NCCCC[C@@H](NC(=O)[C@H]1CCCN1C(=O)[C@@H](CC(C)C)NC(=O)[C@H]1CCCN1C(=O)[C@@H](CCCNC(=N)N)NC(=O)[C@@H](CCCCN)NC(=O)[C@@H](CCC(N)=O)NC(=O)[C@@H](Cc1ccc(O)cc1)NC(=O)CNC(=O)[C@@H](CC(C)C)NC(=O)[C@@H](CS)NC(=O)[C@@H](CS)NC(=O)[C@@H](CCCCN)NC(=O)[C@@H](CC(=O)O)NC(=O)[C@H]1CCCN1C(=O)[C@@H](CCCNC(=N)N)NC(=O)[C@@H](Cc1c[nH]cn1)NC(=O)[C@@H](Cc1c[nH]c2ccccc12)NC(=O)[C@@H](CO)NC(=O)[C@@H](C)NC(=O)CNC(=O)[C@H](N)CC(C)C)C(=O)O [[^18F]AlF-NOTA-DV1-k-(DV3)] (I: H-[dL]G[dA][dS][dW][dH][dR][dP][dD][dK][dC][dC][dL]G[dY][dQ][dK][dR][dP][dL][dP][dK]-OH / II: H-[dL]G[dA][dS][dW][dH][dR][dP][dD][dK](NOTA); amide I:22-II:C)
parent (intact) radioligand in plasma ([1]; i.v., plasma 15 min p.i., radioHPLC fractions, gamma counter, n = 2): 86 ± 0.1% | parent (intact) radioligand in urine ([1]; i.v., urine 75 min p.i., radioHPLC, n = 3): 37 ± 2% | polar metabolites in plasma ([1]; plasma 15 min p.i., n = 2): 14 ± 0.1% | polar metabolites in urine ([1]; urine 75 min p.i., n = 3): 63 ± 2% | SUV at 1.25 h ([2]; blood, + AMD3100 5 mg/kg, n: PentixaFor 1, 18F 2, 68Ga 4, 177Lu 3, read-out: blood uptake): 0.5 SUV | SUV at 1.25 h ([2]; blood, tracer alone, n: PentixaFor 3, 18F 5, 68Ga 4, 177Lu 3, read-out: blood uptake): 0.2 ± 0.1 SUV | SUV at 1.25 h ([2]; bone (femur harboring bone marrow), tracer alone, n: PentixaFor 3, 18F 5, 68Ga 4, 177Lu 3, read-out: bone uptake (femur harboring bone marrow)): 0.7 ± 0.4 SUV | SUV at 1.25 h ([2]; brain, + AMD3100 5 mg/kg, n: PentixaFor 1, 18F 2, 68Ga 4, 177Lu 3, read-out: brain uptake): 0.02 SUV | SUV at 1.25 h ([2]; brain, tracer alone, n: PentixaFor 3, 18F 5, 68Ga 4, 177Lu 3, read-out: brain uptake): 0.01 ± 0.003 SUV | SUV at 1.25 h ([2]; heart, + AMD3100 5 mg/kg, n: PentixaFor 1, 18F 2, 68Ga 4, 177Lu 3, read-out: heart uptake): 0.2 SUV | SUV at 1.25 h ([2]; heart, tracer alone, n: PentixaFor 3, 18F 5, 68Ga 4, 177Lu 3, read-out: heart uptake): 0.2 ± 0.1 SUV | SUV at 1.25 h ([2]; kidneys, + AMD3100 5 mg/kg, n: PentixaFor 1, 18F 2, 68Ga 4, 177Lu 3, read-out: kidneys uptake): 35.4 SUV | SUV at 1.25 h ([2]; kidneys, tracer alone, n: PentixaFor 3, 18F 5, 68Ga 4, 177Lu 3, read-out: kidneys uptake): 23.2 ± 3.9 SUV | SUV at 1.25 h ([2]; liver, + AMD3100 5 mg/kg, n: PentixaFor 1, 18F 2, 68Ga 4, 177Lu 3, read-out: liver uptake): 1 SUV | SUV at 1.25 h ([2]; liver, tracer alone, n: PentixaFor 3, 18F 5, 68Ga 4, 177Lu 3, read-out: liver uptake): 7.4 ± 0.5 SUV | SUV at 1.25 h ([2]; lungs, + AMD3100 5 mg/kg, n: PentixaFor 1, 18F 2, 68Ga 4, 177Lu 3, read-out: lungs uptake): 0.8 SUV | SUV at 1.25 h ([2]; lungs, tracer alone, n: PentixaFor 3, 18F 5, 68Ga 4, 177Lu 3, read-out: lungs uptake): 0.8 ± 0.2 SUV | SUV at 1.25 h ([2]; pancreas, + AMD3100 5 mg/kg, n: PentixaFor 1, 18F 2, 68Ga 4, 177Lu 3, read-out: pancreas uptake): 0.1 SUV | SUV at 1.25 h ([2]; pancreas, tracer alone, n: PentixaFor 3, 18F 5, 68Ga 4, 177Lu 3, read-out: pancreas uptake): 0.1 ± 0.02 SUV | SUV at 1.25 h ([2]; spleen, + AMD3100 5 mg/kg, n: PentixaFor 1, 18F 2, 68Ga 4, 177Lu 3, read-out: spleen uptake): 0.9 SUV | SUV at 1.25 h ([2]; spleen, tracer alone, n: PentixaFor 3, 18F 5, 68Ga 4, 177Lu 3, read-out: spleen uptake): 3.2 ± 0.8 SUV | bone uptake [3, 5]: 0.1 ± 0.04 SUV | spleen uptake [3, 5]: 0.5 ± 0.1 SUV | bone uptake ([3]; co-injected AMD3100 5 mg/kg (157 nmol), n = 4, listed as [18F]AlF-NOTA-DV1-k-(DV3)): 0.1 ± 0.04 SUV | bone uptake [3, 6]: 0.2 ± 0.04 SUV | liver uptake [3, 6]: 1.2 ± 0.1 SUV | bone uptake [3, 7]: 0.3 ± 0.1 SUV | liver uptake [3, 7]: 1.2 ± 0.4 SUV | bone uptake [3, 8]: 0.2 ± 0.04 SUV | liver uptake [3, 8]: 0.7 ± 0.1 SUV | tumor-to-blood ratio (t/blood) [3, 9]: 1.7 ± 0.5 | tumor-to-liver ratio (t/liver) [3, 9]: 0.5 ± 0.2 | tumor-to-liver ratio (t/liver) [3, 10]: 0.6 ± 0.1 | tumor-to-muscle ratio (t/muscle) [3, 10]: 5.4 ± 2.2 | tumor-to-muscle ratio (t/muscle) ([3]; SUV ratio, co-injected DV1-k-(DV3) 14 nmol, n = 4): 4.8 ± 2.1 | tumor-to-liver ratio (t/liver) [3, 11]: 0.9 ± 0.2 | tumor-to-muscle ratio (t/muscle) [3, 11]: 3.0 ± 0.4 | SUV at 1.25 h ([4]; blood, co-injected DV1-k-(DV3) 7 nmol, n = 3, read-out: blood uptake): 0.4 ± 0.2 SUV | SUV at 1.25 h ([4]; blood, co-injected DV1-k-(DV3) 14 nmol, n = 4, read-out: blood uptake): 0.5 ± 0.3 SUV | SUV at 1.25 h ([4]; blood, tracer alone (0 nmol), n = 4, read-out: blood uptake): 0.1 ± 0.1 SUV | SUV at 1.25 h ([4]; blood, with AMD3100 5 mg/kg (157 nmol), co-injected, co-injected AMD3100 5 mg/kg (157 nmol), n = 4, read-out: blood uptake): 0.3 ± 0.2 SUV | SUV at 1.25 h ([4]; bone, co-injected AMD3100 5 mg/kg (157 nmol), n = 4, read-out: bone uptake): 0.1 ± 0.04 SUV | SUV at 1.25 h ([4]; bone, co-injected DV1-k-(DV3) 7 nmol, n = 3, read-out: bone uptake): 0.2 ± 0.04 SUV | SUV at 1.25 h ([4]; bone, co-injected DV1-k-(DV3) 14 nmol, n = 4, read-out: bone uptake): 0.3 ± 0.1 SUV | SUV at 1.25 h ([4]; bone, co-injected DV1-k-(DV3) 24 nmol, n = 4, read-out: bone uptake): 0.2 ± 0.04 SUV | SUV at 1.25 h ([4]; bone, tracer alone (0 nmol), n = 4, read-out: bone uptake): 0.4 ± 0.1 SUV | SUV at 1.25 h ([4]; brain, co-injected AMD3100 5 mg/kg (157 nmol), n = 4, read-out: brain uptake): 0.01 ± 0.004 SUV | SUV at 1.25 h ([4]; brain, co-injected DV1-k-(DV3) 7 nmol, n = 3, read-out: brain uptake): 0.02 ± 0.01 SUV | SUV at 1.25 h ([4]; brain, co-injected DV1-k-(DV3) 14 nmol, n = 4, read-out: brain uptake): 0.03 ± 0.01 SUV | SUV at 1.25 h ([4]; brain, co-injected DV1-k-(DV3) 24 nmol, n = 4, read-out: brain uptake): 0.02 ± 0.01 SUV | SUV at 1.25 h ([4]; brain, tracer alone (0 nmol), n = 4, read-out: brain uptake): 0.01 ± 0.001 SUV | SUV at 1.25 h ([4]; heart, co-injected AMD3100 5 mg/kg (157 nmol), n = 4, read-out: heart uptake): 0.1 ± 0.1 SUV | SUV at 1.25 h ([4]; heart, co-injected DV1-k-(DV3) 7 nmol, n = 3, read-out: heart uptake): 0.2 ± 0.1 SUV | SUV at 1.25 h ([4]; heart, co-injected DV1-k-(DV3) 14 nmol, n = 4, read-out: heart uptake): 0.3 ± 0.1 SUV | SUV at 1.25 h ([4]; heart, co-injected DV1-k-(DV3) 24 nmol, n = 4, read-out: heart uptake): 0.2 ± 0.1 SUV | SUV at 1.25 h ([4]; heart, tracer alone (0 nmol), n = 4, read-out: heart uptake): 0.1 ± 0.04 SUV | SUV at 1.25 h ([4]; kidneys, co-injected AMD3100 5 mg/kg (157 nmol), n = 4, read-out: kidneys uptake): 47.5 ± 3.1 SUV | SUV at 1.25 h ([4]; kidneys, co-injected DV1-k-(DV3) 7 nmol, n = 3, read-out: kidneys uptake): 39.2 ± 7.6 SUV

From paper PMC8537445, “D-Peptide-Based Probe for CXCR4-Targeted Molecular Imaging and Radionuclide Therapy” (Pharmaceutics, 2021)
